Measured values reported in article PMC9917099, “The Mycotoxin Patulin Inhibits the Mitochondrial Carnitine/Acylcarnitine Carrier (SLC25A20) by Interaction with Cys136 Implications for Human Health” (International Journal of Molecular Sciences, 2023).
Changes are numbered by the printed parent chain. Where “and” joins values, the source holds several entries; their conditions need not be identical. Equal values may be shown once.

Columns and labels:
recombinant human WT CAC = molecular target: T1, recombinant human WT CAC (Homo sapiens, UniProt O43772); assay: [3H]-carnitine/carnitine antiport in proteoliposomes with recombinant human WT CAC; assay type: biochemical; settings: PAT 30 min, read-out: IC50 of CAC WT inhibition
T1 construct: made in house; host or cells: E. coli C0214 (pMW7, inclusion bodies)
T1 sequence (O43772 1-301): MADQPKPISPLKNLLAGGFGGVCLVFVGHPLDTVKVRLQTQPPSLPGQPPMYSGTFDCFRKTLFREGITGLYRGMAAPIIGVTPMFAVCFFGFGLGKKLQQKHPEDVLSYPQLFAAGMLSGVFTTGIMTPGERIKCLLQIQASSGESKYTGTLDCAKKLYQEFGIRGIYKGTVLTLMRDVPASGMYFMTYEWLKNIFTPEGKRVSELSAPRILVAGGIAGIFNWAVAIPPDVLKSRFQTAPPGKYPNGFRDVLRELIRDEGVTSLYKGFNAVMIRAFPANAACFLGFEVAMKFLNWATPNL
Method: (§1) To shed light on the interaction between PAT and CAC and verify if specific Cys residues were involved, transport experiments on the recombinant rat and human WT CAC and CAC’s rat Cys mutants were performed. As in the case of the native protein, transport activities were measured as [^3H]-carnitine/carnitine antiport in proteoliposomes. […] The PAT inhibition of the WT recombinant protein was only slightly greater compared to the native protein, although compounds and other molecular systems that affect the mycotoxin binding to the native CAC were absent (see above). For identifying the residues involved in the PAT interaction, site-directed Cys mutants were tested for inhibition (Figure 2). […]
(§2) Figure 2 Dose-response analysis of the PAT inhibition of the CAC recombinant proteins. […] The data are expressed as a percentage of the controls (no PAT addition) and are means ± SD of three independent experiments. […]
(§3) For the transport assay, 550 μL of proteoliposomes were passed through a Sephadex G-75 column in order to remove the external substrate. […] After finishing the transport reaction, the external radiolabel substrate was removed by gel filtration chromatography (Sephadex G-75), and the intraliposomal radioactivity was measured by liquid scintillation. Transport was measured at 25 °C. […] Transport rates were measured in 10 min, i.e., within the initial linear range of the time course.

rat CAC mutant C136S = molecular target: T2, rat CAC mutant C136S (Rattus norvegicus, UniProt P97521, C136S); assay: Carnitine antiport in proteoliposomes, CAC mutant C136S; assay type: biochemical
T2 construct: made in house; host or cells: E. coli C0214 (pMW7, inclusion bodies)
T2 sequence (P97521 1-301 C136S): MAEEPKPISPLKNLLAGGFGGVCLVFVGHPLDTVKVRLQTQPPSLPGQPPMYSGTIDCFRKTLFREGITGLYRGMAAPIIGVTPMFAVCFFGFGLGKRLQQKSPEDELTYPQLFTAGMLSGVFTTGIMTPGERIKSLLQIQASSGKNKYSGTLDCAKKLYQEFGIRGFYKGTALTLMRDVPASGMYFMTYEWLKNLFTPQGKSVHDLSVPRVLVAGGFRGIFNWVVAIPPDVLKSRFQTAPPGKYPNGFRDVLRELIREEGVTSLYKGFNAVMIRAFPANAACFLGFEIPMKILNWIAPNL
Method: as §1, §2, §3

[1] = molecular target: T3, rat CAC C-less mutant (C23V/C58V/C89S/C136V/C155V/C283S) (Rattus norvegicus, UniProt P97521, C136V/C155V/C23V/C283S/C58V/C89S); assay: Carnitine antiport in proteoliposomes, C-less CAC mutant; assay type: biochemical
T3 construct: made in house; host or cells: E. coli C0214 (pMW7, inclusion bodies)
T3 sequence (P97521 1-301 C23V/C58V/C89S/C136V/C155V/C283S): T2 sequence (P97521 1-301 C136S) with C23V, C58V, C89S, S136V, C155V, C283S
Method: To shed light on the interaction between PAT and CAC and verify if specific Cys residues were involved, transport experiments on the recombinant rat and human WT CAC and CAC’s rat Cys mutants were performed. As in the case of the native protein, transport activities were measured as [^3H]-carnitine/carnitine antiport in proteoliposomes. […] The PAT inhibition of the WT recombinant protein was only slightly greater compared to the native protein, although compounds and other molecular systems that affect the mycotoxin binding to the native CAC were absent (see above). For identifying the residues involved in the PAT interaction, site-directed Cys mutants were tested for inhibition (Figure 2). […] The choice of this last mutant was due to the proximity of C155 to C136 during some steps of the substrate translocation mechanism. […]
as §3

cell viability = test system: cell viability; parameters: method as in PMID 25098256; settings: 60 µM; cited from earlier work

With `O=C1C=C2C(=CCOC2O)O1` (stereo not shown) [PAT, 4-hydroxy-4H-furo [3,2c] pyran-2 [6H] -one] as the compound, how does the IC50 (recombinant human WT CAC) read?
Its IC50 is 50 µM and ~50 µM.

What about the IC50 (rat CAC mutant C136S) of the same compound?
Its IC50 is “not possible to detect”.

And the “effect on transport activity” value [1]?
The value was “no effect”.

What about the “toxicity for cell viability” value (cell viability) of the same compound?
Its value is “nontoxic range”.
